From patent US11406664B2, “Ferric maltol compositions for use in the treatment or prevention of cancer and tumours” (Shield TX (UK) Limited, priority 2016, dated 2022)

Tests used:
[1] = system: Caco2 human epithelial colorectal adenocarcinoma cell line; assay: Proliferation assay by real time live cell imaging (Incucyte), Caco2; type: cell-based; conditions: for effect on cell proliferation: iron compounds, 5 or 10% FBS, at concentrations predicted in gut lumen with iron supplementation
Method: FIG. 1. […] Cells were treated for 72 h with the indicated iron compounds in complete growth media containing 5% FBS (A) or 10% FBS (B), the corresponding ‘ligand-only’ controls are shown in panels C and D. Normalised cell proliferation corresponds to the area under the proliferation curve for cells grown in media supplemented with each compound divided by the area under the curve for cells grown in media alone (i.e. without any of the supplemented compounds). Data are presented as mean with SEM (n=3 independent experiments with 3 replicates for each experiment).
(§1) A stock solution of ferric citrate (FeCitrate) 8 mM [Fe] was produced by adding citric acid to ferric chloride on a 1:1 molar ratio. Ferric trimaltol (FTMB) was produced from iron hydroxides and maltol, and the stock solution of circa 8 mM [Fe] was produced by dissolving it in ultrapure water. All stock solutions were filter sterilised (0.2 μm).
(§2) Three different epithelial cancer cell lines were used: colorectal adenocarcinoma [Caco2 (ATCC) and HT29(ECAAC)] and duodenum adenocarcinoma [Hutu 80 (ATCC)]. The cells were grown in an incubator at 37° C. and an atmosphere of 5% CO2 and 95% air at a relative humidity of approximately 95%. The cancer cells were grown in Gibco® MEM supplemented with 5 or 10% foetal bovine serum (FBS) as stated, 1% penicillin/streptomycin (10.000 Units/ml Penicillin, 10.000 μg/ml Streptomycin) and 1% fungizone (Amphotericin B, 250 μg/ml).
(§3) Working solutions of 2 mM [Fe] for each iron compound were prepared fresh on the day of the experiment by diluting the stock solutions of the different iron materials in complete cell growth medium and these 2 mM solutions were used in the serial dilutions to achieve the 8 different concentrations for the proliferation assay (0.89, 0.49, 0.27, 0.15, 0.08, 0.05, 0.026, 0.015) in 96-well ImageLock cell culture plates. A control condition containing only complete growth medium without any iron compound added was also tested. The cells were seeded at a density of 10,000-20,000 cells/well. The plates were incubated in a Live Content Imaging Incubator (Incucyte ZOOM, Essen BioScience Ltd., UK) and images and confluence data were acquired every 3 hours for 72 hours post-seeding. Within each experiment each iron concentration was tested in triplicate wells.
(§4) The plot of confluence (%) vs time (h) was obtained for each iron compound and concentration. The area under the curve (AUC) was calculated and plotted against the concentration for each test compound or the control. The AUC for each iron compound was normalised against that of the control (i.e. complete growth medium alone).

[2] = system: HT29 human epithelial colorectal adenocarcinoma cell line; assay: Proliferation assay by real time live cell imaging (Incucyte), HT29; type: cell-based; conditions: for effect on cell proliferation: iron compounds, 5 or 10% FBS, at concentrations predicted in gut lumen with iron supplementation; for effect on cell proliferation / effect on cancer cell proliferation, ligand not bound to iron: 72 h; for effect on cancer cell proliferation, ligand not bound to iron: ligand-only control
Method: FIG. 3: Inhibition of cell proliferation in the HT29 human epithelial colorectal adenocarcinoma cell line with the different iron compounds as assessed by real time live cell imaging (Incucyte™). Conditions were as above in the legend to FIG. 2.
as §1, §2, §3, §4

[3] = system: Hutu 80 human epithelial duodenum adenocarcinoma cell line; assay: Proliferation assay by real time live cell imaging (Incucyte), Hutu 80; type: cell-based; conditions: for effect on cell proliferation: iron compounds, 5 or 10% FBS, at concentrations predicted in gut lumen with iron supplementation; for effect on cell proliferation / effect on cancer cell proliferation, ligand not bound to iron: 72 h; for effect on cancer cell proliferation, ligand not bound to iron: ligand-only control
Method: FIG. 2: Inhibition of cell proliferation in the Hutu 80 human epithelial duodenum adenocarcinoma cell line with different iron compounds as assessed by real time live cell imaging (Incucyte™) Cells were treated for 72 h with the indicated iron compounds in complete growth media containing 5% FBS (A) or 10% FBS (B), the corresponding ‘ligand-only’ controls are shown in panels C and D. Normalised cell proliferation corresponds to the area under the proliferation curve for cells grown in media supplemented with each compound divided by the area under the curve for cells grown in media alone (i.e. without any of the supplemented compounds). Data are presented as mean with SEM (n=2 independent experiments with 3 replicates for each experiment).
as §1, §2, §3, §4

[4] = patients with inflammatory bowel disease; cited from earlier work
intestinal cancer = conditions: animal models; cited from earlier work
[5] = review of real time-recorded cell images, concentration as iron

Compound	effect on cell proliferation ([1]; 72 h)	effect on cell proliferation [2]	effect on cell proliferation [3]	effect on intestinal cancer (intestinal cancer)	effect on cancer cell proliferation, ligand not bound to iron [2]	effect on cancer cell proliferation, ligand not bound to iron [3]	also measured
Cc1occc(=O)c1[O-].Cc1occc(=O)c1[O-].Cc1occc(=O)c1[O-].[Fe+3] [ferric trimaltol]	inhibited cancer cell proliferation	inhibited cancer cell proliferation	inhibited cancer cell proliferation	–	–	–	iron concentration at which cells were non-proliferative [1, 5]: 80 µM; iron concentration at which cells were poorly proliferating [1, 5]: 50 µM; iron concentration at which cells were non-proliferative [2, 5]: 80 µM; iron concentration at which cells were poorly proliferating [2, 5]: 50 µM; iron concentration at which cells were non-proliferative [3, 5]: 400 µM; iron concentration at which cells were poorly proliferating [3, 5]: 150 µM; correction of iron deficiency anaemia [4]: effectively delivers iron to correct iron deficiency anaemia
ferric citrate	promoted proliferation	promoted proliferation	promoted proliferation	enhance intestinal cancer	–	–	–
O=C(O)CN(CCN(CC(=O)O)CC(=O)O)CC(=O)O [EDTA]	–	–	–	–	moderate inhibition	moderate inhibition	–
Cc1occc(=O)c1O [maltol, 3-Hydroxy-2-methyl-4H-pyran-4-one]	–	–	–	–	moderate inhibition	moderate inhibition	effect on cancer cell proliferation, ligand not bound to iron ([1]; ligand-only control, 72 h): moderate inhibition
O=C([O-])CN(CCN(CC(=O)[O-])CC(=O)[O-])CC(=O)[O-].[Fe+3].[Na+] [ferric EDTA, ferric EDTA sodium salt]	–	promoted proliferation	promoted proliferation	enhance intestinal cancer	–	–	–
O.O.O.O.O.O.O.O=S(=O)([O-])[O-].[Fe+2] [ferrous sulphate, Ferrous sulphate heptahydrate]	–	promoted proliferation	promoted proliferation	–	–	–	–
